Test results from PubChem BioAssay AID248 (DTP/NCI, 2004).
Several values for one entry are separate records, joined by “and”; a condition that tells them apart may be missing. Identical values can stand only once. Toxic doses and inconclusive results are not listed. Rule as the data show it: active = T/C of 150% or more; inactive = T/C below 125%.

Tested on: L1210 leukemia ip in BDF1 mice, survival T/C
Assay: NCI In Vivo Anticancer Drug Screen. Data for tumor model L1210 Leukemia (intraperitoneal) in B6D2F1 (BDF1) mice
Settings: endpoint: mean survival time, higher = longer survival
Method in brief: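 Transplantable tumor model; survival measured in treated vs vehicle control mice. Value = treated/control.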

[1] = dose: 100.0 mg/kg/injection, schedule: Q04DX002 (ip), vehicle: Klucel (hydroxypropylcellulose) (HPC)
[2] = dose: 200.0 mg/kg/injection, schedule: Q04DX002 (ip), vehicle: Klucel (hydroxypropylcellulose) (HPC)
[3] = dose: 400.0 mg/kg/injection, schedule: Q04DX002 (ip), vehicle: Klucel (hydroxypropylcellulose) (HPC)
[4] = dose: 100.0 mg/kg/injection, schedule: Q01DX001 (ip), vehicle: Klucel (hydroxypropylcellulose) (HPC)
[5] = dose: 200.0 mg/kg/injection, schedule: Q01DX001 (ip), vehicle: Klucel (hydroxypropylcellulose) (HPC)
[6] = dose: 400.0 mg/kg/injection, schedule: Q01DX001 (ip), vehicle: Klucel (hydroxypropylcellulose) (HPC)
[7] = dose: 100.0 mg/kg/injection, schedule: Q01DX001 (ip), vehicle: saline
[8] = dose: 200.0 mg/kg/injection, schedule: Q01DX001 (ip), vehicle: saline
[9] = dose: 400.0 mg/kg/injection, schedule: Q01DX001 (ip), vehicle: saline
[10] = dose: 100.0 mg/kg/injection, schedule: Q04DX003 (ip), vehicle: Klucel (hydroxypropylcellulose) (HPC)
[11] = dose: 200.0 mg/kg/injection, schedule: Q04DX003 (ip), vehicle: Klucel (hydroxypropylcellulose) (HPC)
[12] = dose: 400.0 mg/kg/injection, schedule: Q04DX003 (ip), vehicle: Klucel (hydroxypropylcellulose) (HPC)
[13] = dose: 100.0 mg/kg/injection, schedule: Q01DX001 (ip), vehicle: carboxymethylcellulose (CMC)
[14] = dose: 200.0 mg/kg/injection, schedule: Q01DX001 (ip), vehicle: carboxymethylcellulose (CMC)
[15] = dose: 400.0 mg/kg/injection, schedule: Q01DX001 (ip), vehicle: carboxymethylcellulose (CMC)
[16] = dose: 25.0 mg/kg/injection, schedule: Q01DX009 (ip), vehicle: saline with Tween-80

Measured: T/C

CCCCCCC(=O)/C=C\c1ccc([N+](C)(C)C)cc1
inactive: dose: 25.0 mg/kg/injection, schedule: Q01DX009 (sc), vehicle: steriod suspending solution 93 % of control | dose: 25.0 mg/kg/injection, schedule: Q04DX003 (sc), vehicle: steriod suspending solution 94 % of control | dose: 50.0 mg/kg/injection, schedule: Q01DX009 (sc), vehicle: steriod suspending solution 97 % of control | dose: 50.0 mg/kg/injection, schedule: Q04DX003 (sc), vehicle: steriod suspending solution 92 % of control | dose: 100.0 mg/kg/injection, schedule: Q01DX001 (sc), vehicle: steriod suspending solution 86 % of control | dose: 100.0 mg/kg/injection, schedule: Q04DX003 (sc), vehicle: steriod suspending solution 106 % of control

O=c1[nH]c(=O)n(C2OC(CO)C(O)C2O)cc1CCC(F)F (centres undefined)
inactive: dose: 100.0 mg/kg/injection, schedule: Q04DX002 (ip), vehicle: other 105 % of control | dose: 200.0 mg/kg/injection, schedule: Q04DX002 (ip), vehicle: other 102 % of control

CCOC(=O)C(=O)N(CC)CC
inactive: [1] 98 % of control | [2] 98 % of control | [3] 88 % of control

COc1ccc2c(c1)sc(=N)n2C
inactive: dose: 100.0 mg/kg/injection, schedule: Q04DX002 (ip), vehicle: saline 97 % of control | dose: 200.0 mg/kg/injection, schedule: Q04DX002 (ip), vehicle: saline 93 % of control

O=C1c2ccccc2C(=O)N1c1ccc([N+](=O)[O-])cc1
inactive: [4] 103 % of control | [5] 97 % of control | [6] 103 % of control

O=C(Nc1ccc(Cl)cc1)c1ccccc1Cl
inactive: [1] 93 % of control | [2] 100 % of control | [3] 100 % of control

CS(=O)(=O)OCCCCCOS(C)(=O)=O
inactive: dose: 5.0 mg/kg/injection, schedule: Q01DX001 (ip), vehicle: carboxymethylcellulose (CMC) 97 % of control | dose: 6.0 mg/kg/injection, schedule: Q01DX015 (ip), vehicle: saline 101 % of control | dose: 10.0 mg/kg/injection, schedule: Q01DX001 (ip), vehicle: carboxymethylcellulose (CMC) 100 % of control | dose: 12.0 mg/kg/injection, schedule: Q01DX015 (ip), vehicle: saline 110 % of control | dose: 20.0 mg/kg/injection, schedule: Q01DX001 (ip), vehicle: carboxymethylcellulose (CMC) 100 % of control | dose: 40.0 mg/kg/injection, schedule: Q01DX001 (ip), vehicle: carboxymethylcellulose (CMC) 101 % of control | dose: 50.0 mg/kg/injection, schedule: Q01DX015 (ip), vehicle: saline 101 % of control

[O-]/[N+](=C\c1ccc(OCc2ccccc2)cc1)c1ccccc1
inactive: dose: 50.0 mg/kg/injection, schedule: Q01DX001 (ip), vehicle: saline 102 % of control | [7] 102 % of control | [8] 108 % of control | [9] 90 % of control

c1ccc(NCCOc2ccccc2)cc1
inactive: dose: 100.0 mg/kg/injection, schedule: Q01DX009 (ip), vehicle: Klucel (hydroxypropylcellulose) (HPC) 108 % of control | [1] 114 % of control | dose: 200.0 mg/kg/injection, schedule: Q01DX009 (ip), vehicle: Klucel (hydroxypropylcellulose) (HPC) 94 % of control | [2] 98 % of control | [3] 88 % of control

O=C(NC/C(Br)=C/Br)C(F)(F)F
inactive: [4] 113 % of control | [10] 90 % of control | [5] 105 % of control | [11] 88 % of control | [6] 105 % of control | [12] 90 % of control

CCOC(=O)Cc1c(C)c2c(O)cc(O)cc2oc1=O
inactive: [13] 97 % of control | [14] 89 % of control | [15] 97 % of control

Cc1ccc(NC(=O)OCCOc2ccc(Br)cc2)cc1[N+](=O)[O-]
inactive: [10] 94 % of control | [11] 90 % of control | [12] 94 % of control

Cc1cc(OCCOC(=O)Nc2cccc(C(F)(F)F)c2)cc(C)c1Cl
inactive: [16] 102 % of control | dose: 50.0 mg/kg/injection, schedule: Q01DX009 (ip), vehicle: saline with Tween-80 102 % of control | dose: 100.0 mg/kg/injection, schedule: Q01DX009 (ip), vehicle: saline with Tween-80 98 % of control and 118 % of control | dose: 200.0 mg/kg/injection, schedule: Q01DX009 (ip), vehicle: saline with Tween-80 93 % of control | dose: 400.0 mg/kg/injection, schedule: Q01DX009 (ip), vehicle: saline with Tween-80 91 % of control

Cc1nc(N)nc(N)c1CCCOc1ccc(N)cc1
inactive: [4] 103 % of control | [5] 97 % of control | [6] 100 % of control

C[N+]1(C)C2CCC1C(CO)C(O)C2 (centres undefined)
inactive: [7] 94 % of control | [8] 97 % of control | [9] 94 % of control

COc1ccc(C(=O)CBr)c(OC)c1
inactive: dose: 12.5 mg/kg/injection, schedule: Q04DX003 (ip), vehicle: saline 104 % of control | [16] 96 % of control | dose: 25.0 mg/kg/injection, schedule: Q04DX003 (ip), vehicle: saline 97 % of control | dose: 50.0 mg/kg/injection, schedule: Q04DX003 (ip), vehicle: saline 93 % of control | dose: 100.0 mg/kg/injection, schedule: Q04DX003 (ip), vehicle: saline with Tween-80 97 % of control

NC(=O)c1ccccc1Cl
inactive: dose: 100.0 mg/kg/injection, schedule: Q01DX001 (ip), vehicle: saline with Tween-80 104 % of control | dose: 100.0 mg/kg/injection, schedule: Q01DX009 (ip), vehicle: saline sonified 105 % of control | dose: 200.0 mg/kg/injection, schedule: Q01DX001 (ip), vehicle: saline with Tween-80 102 % of control | dose: 200.0 mg/kg/injection, schedule: Q01DX009 (ip), vehicle: saline sonified 89 % of control | dose: 400.0 mg/kg/injection, schedule: Q01DX001 (ip), vehicle: saline with Tween-80 101 % of control | dose: 400.0 mg/kg/injection, schedule: Q01DX009 (ip), vehicle: saline sonified 100 % of control

O=C(COc1ccc(Cl)cc1Cl)Nc1cc(C(F)(F)F)ccc1Cl
inactive: dose: 50.0 mg/kg/injection, schedule: Q01DX001 (ip), vehicle: other 96 % of control | dose: 100.0 mg/kg/injection, schedule: Q01DX001 (ip), vehicle: other 107 % of control | dose: 100.0 mg/kg/injection, schedule: Q04DX002 (ip), vehicle: gum acacia 118 % of control | dose: 200.0 mg/kg/injection, schedule: Q01DX001 (ip), vehicle: other 89 % of control | dose: 200.0 mg/kg/injection, schedule: Q04DX002 (ip), vehicle: gum acacia 91 % of control | dose: 400.0 mg/kg/injection, schedule: Q01DX001 (ip), vehicle: other 94 % of control | dose: 400.0 mg/kg/injection, schedule: Q04DX002 (ip), vehicle: gum acacia 103 % of control

NC(CO)C(=O)O (centres undefined)
inactive: [13] 95 % of control | [7] 91 % of control and 104 % of control | [14] 101 % of control | [8] 92 % of control and 101 % of control | [15] 103 % of control | [9] 105 % of control and 95 % of control

CC(C)CC(NC(=O)OC(C)(C)C)C(=O)NC(Cc1c[nH]c2ccccc12)C(=O)NN (centres undefined)
inactive: [13] 88 % of control | [15] 94 % of control

N=C(OC1CCCCC1)N1CCCC1
inactive: dose: 22.0 mg/kg/injection, schedule: Q01DX Z (ip), vehicle: saline 98 % of control | dose: 33.0 mg/kg/injection, schedule: Q01DX Z (ip), vehicle: saline 98 % of control | dose: 50.0 mg/kg/injection, schedule: Q01DX Z (ip), vehicle: saline 98 % of control

CCN1C(/C=C/c2ccc(O)c3ncccc23)CCC2CC(C)CCC21 (centres undefined)
inactive: dose: 75.0 mg/kg/injection, schedule: Q01DX001 (ip), vehicle: saline 117 % of control | dose: 150.0 mg/kg/injection, schedule: Q01DX001 (ip), vehicle: saline 119 % of control | dose: 300.0 mg/kg/injection, schedule: Q01DX001 (ip), vehicle: saline 120 % of control

CNS(=O)(=O)c1ccccc1C(C)(O)c1ccccc1 (centres undefined)
inactive: [7] 97 % of control | [8] 103 % of control | [9] 97 % of control

NNCc1cc(Cl)c2cccnc2c1O
inactive: [1] 105 % of control | [2] 105 % of control | [3] 99 % of control

CC(C)CC/C=C/c1ccccc1
inactive: dose: 100.0 mg/kg/injection, schedule: Q04DX002 (ip), vehicle: saline with Tween-80 92 % of control | dose: 200.0 mg/kg/injection, schedule: Q04DX002 (ip), vehicle: saline with Tween-80 104 % of control | dose: 400.0 mg/kg/injection, schedule: Q04DX002 (ip), vehicle: saline with Tween-80 92 % of control
